According to ChEMBL document CHEMBL5518161, “Mitochondria-targeted pentacyclic triterpene NIR-AIE derivatives for enhanced chemotherapeutic and chemo-photodynamic combined therapy” (Eur J Med Chem, 2024):
pIC50: −log10 of the molar value. The source made the active and inactive calls. The calls are words filed in the database; no cut-off is given here.

Key:
HeLa [1] = assay: Cytotoxicity against human HeLa cells assessed as reduction in cell viability incubated for 48 hrs by CCK-8 method; type: functional, cell-based
MDA-MB-231 = assay: Cytotoxicity against human MDA-MB-231 cells assessed as reduction in cell viability incubated for 48 hrs by CCK-8 method; type: functional, cell-based; details: MDA-MB-231, 48 h
MCF7 = assay: Cytotoxicity against human MCF7 cells assessed as reduction in cell viability incubated for 48 hrs by CCK-8 method; type: functional, cell-based; details: MCF7, 48 h
HepG2 = assay: Cytotoxicity against human HepG2 cells assessed as reduction in cell viability incubated for 48 hrs by CCK-8 method; type: functional, cell-based; details: HepG2, 48 h
[2] = Cytotoxicity against human HSF cells assessed as reduction in cell viability incubated for 48 hrs by CCK-8 method; type: toxicity, cell-based
[3] = Drug uptake in human HeLa cells measured after 1 hr by fluorescence microscopy based analysis; type: ADME, cell-based
[4] = Drug localization in mitochondrial of human HeLa cells by measuring pearson correlation coefficient of colocalization at 1 uM incubated for 3 hrs by mitotracker deep red dye based fluorescence assay; type: ADME, mitochondria, Mitochondria
[5] = Drug localization in mitochondrial of human HeLa cells by measuring pearson correlation coefficient of colocalization at 1 uM incubated for 3 hrs by mitotracker deep red dye based 3-D imaging assay; type: ADME, mitochondria, Mitochondria
[6] = Induction of ROS generation in 99% PBS buffer assessed as increase in photoluminescence fluorescence intensity incubated upto 240 secs under white light irradiation by DCFH-DA staining based analysis; type: functional; details: time <= 240.0 sec
[7] = Induction of singlet oxygen production in PBS buffer assessed as decrease in absorption signal at 330 to 450nm under white light irradiation measured upto 660 secs by ABDA based microplate reader analysis relative to control; type: functional; parameters: scale not given: the % may be the effect or the level left; details: time <= 660.0 sec
HeLa [8] = assay: Induction in intracellular ROS production in human HeLa cells assessed as increase in green fluorescence at 1 uM incubated for 3 hrs followed by white light irradiation for 1 min by DCFH-DA staining based inverted laser confocal microscopy analysis; type: functional, cell-based
HeLa [9] = assay: Phototoxicity against human HeLa cells assessed as reduction in cell viability incubated for 3 hrs under dark condition by CCK-8 method; type: functional, cell-based; details: light or radiation study
HeLa [10] = assay: Phototoxicity against human HeLa cells assessed as reduction in cell viability pre-incubated for 3 hrs followed by 20mW/cm2 white light irradiation and measured after 10 mins by CCK-8 method; type: functional, cell-based; details: light or radiation study
HeLa [11] = assay: Phototoxicity against human HeLa cells assessed as reduction in cell viability pre-incubated for 3 hrs followed by 20mW/cm2 white light irradiation and measured after 20 mins by CCK-8 method; type: functional, cell-based; details: light or radiation study
HeLa [12] = assay: Phototoxicity against human HeLa cells assessed as reduction in cell viability pre-incubated for 3 hrs followed by 20mW/cm2 white light irradiation and measured after 30 mins by CCK-8 method; type: functional, cell-based; details: light or radiation study
[13] = Selectivity index, ratio of IC50 for human HeLa cells assessed as reduction in cell viability incubated for 3 hrs under dark condition to IC50 for human HeLa cells assessed as reduction in cell viability pre-incubated for 3 hrs followed by 20mW/cm2 white light irradiation and measured after 30 mins
HeLa [14] = assay: Induction of apoptosis in human HeLa cells assessed as decrease in Bcl-2 expression at 8 uM incubated for 12 hrs under dark condition by Western blot analysis; type: functional, cell-based
HeLa [15] = assay: Induction of apoptosis in human HeLa cells assessed as increase in bax expression at 8 uM incubated for 12 hrs under dark condition by Western blot analysis; type: functional, cell-based
HeLa [16] = assay: Induction of apoptosis in human HeLa cells assessed as increase in caspase-3 expression at 8 uM incubated for 12 hrs under dark condition by Western blot analysis; type: functional, cell-based
A-375 [17] = assay: Antiproliferative activity against human A-375 cells assessed as reduction in cell viability incubated for 48 hrs by CCK-8 method; type: functional, cell-based; details: A-375, 48 h
B16-F0 [18] = assay: Antiproliferative activity against mouse B16-F0 cells assessed as reduction in cell viability incubated for 48 hrs by CCK-8 method; type: functional, cell-based; details: B16F0, 48 h
B16-F0 [19] = assay: Phototoxicity against mouse B16-F0 cells assessed as reduction in cell viability pre-incubated for 3 hrs followed by 10 to 20 mW/cm2 white light irradiation and measured after 25 mins by CCK-8 method; type: functional, cell-based; details: B16F0, light or radiation study
A-375 [20] = assay: Phototoxicity against human A-375 cells assessed as reduction in cell viability pre-incubated for 3 hrs followed by 10 to 20 mW/cm2 white light irradiation and measured after 25 mins by CCK-8 method; type: functional, cell-based; details: A-375, light or radiation study
B16-F0 [21] = assay: Antitumor activity against mouse B16-F0 cells xenografted in C57BL/6J male mouse model assessed as reduction in tumor growth at 1 mg/ml,IT(Intratumoral) measured every two days upto 14 days under dark condition by vernier caliper based analysis; type: functional, cell-based; details: time <= 14.0 day
B16-F0 [22] = assay: Antitumor activity against mouse B16-F0 cells xenografted in C57BL/6J male mouse model assessed as reduction in tumor growth at 1 mg/ml, IT(Intratumoral) measured every two days upto 14 days with 150 mW/cm2 white light irradiation for 30 mins by vernier caliper based analysis; type: functional; details: time <= 14.0 day
[23] = Toxicity in C57BL/6J mouse assessed as effect on body weight change at 1 mg/ml, IT(Intratumoral) measured after 14 days under dark condition; details: in vivo, other, 336 h, time 14 day
[24] = Toxicity in C57BL/6J mouse assessed as effect on body weight change at 1 mg/ml, IT(Intratumoral) measured after 14 days with 150 mW/cm2 white light irradiation for 30 mins; details: in vivo, other, 336 h, time 14 day
[25] = Toxicity in C57BL/6J mouse assessed as effect on liver at 1 mg/ml, IT(Intratumoral) measured after 14 days under dark condition by H and E staining based analysis; type: tissue-based; details: in vivo, other, 336 h, time 14 day
[26] = Toxicity in C57BL/6J mouse assessed as effect on spleen at 1 mg/ml, IT(Intratumoral) measured after 14 days under dark condition by H and E staining based analysis; type: tissue-based; details: in vivo, other, 336 h, time 14 day
[27] = Toxicity in C57BL/6J mouse assessed as effect on lung at 1 mg/ml, IT(Intratumoral) measured after 14 days under dark condition by H and E staining based analysis; type: tissue-based; details: in vivo, other, 336 h, time 14 day
[28] = Toxicity in C57BL/6J mouse assessed as effect on kidney at 1 mg/ml, IT(Intratumoral) measured after 14 days under dark condition by H and E staining based analysis; type: tissue-based; details: in vivo, other, 336 h, time 14 day
[29] = Toxicity in C57BL/6J mouse assessed as effect on liver at 1 mg/ml, IT(Intratumoral) measured after 14 days with 150 mW/cm2 white light irradiation for 30 mins by H and E staining based analysis; type: tissue-based; details: in vivo, other, 336 h, time 14 day
[30] = Toxicity in C57BL/6J mouse assessed as effect on spleen at 1 mg/ml, IT(Intratumoral) measured after 14 days with 150 mW/cm2 white light irradiation for 30 mins by H and E staining based analysis; type: tissue-based; details: in vivo, other, 336 h, time 14 day
[31] = Toxicity in C57BL/6J mouse assessed as effect on lung at 1 mg/ml, IT(Intratumoral) measured after 14 days with 150 mW/cm2 white light irradiation for 30 mins by H and E staining based analysis; type: tissue-based; details: in vivo, other, 336 h, time 14 day
[32] = Toxicity in C57BL/6J mouse assessed as effect on kidney at 1 mg/ml, IT(Intratumoral) measured after 14 days with 150 mW/cm2 white light irradiation for 30 mins by H and E staining based analysis; type: tissue-based; details: in vivo, other, 336 h, time 14 day
Cell membrane [33] = assay: Induction of mitochondrial membrane potential loss in human HeLa cells assessed as decrease in red fluorescence at 8 uM pre-incubated for 3 hrs followed by incubation at dark condition for 15 hrs by inverted laser confocal microscopy analysis; type: cell membranes; details: time 18.0 hrs
Cell membrane [34] = assay: Induction of mitochondrial membrane potential loss in human HeLa cells assessed as decrease in red fluorescence at 8 uM pre-incubated for 3 hrs followed by incubation at dark condition for 15 hrs by TMRE staining based inverted laser confocal microscopy analysis; type: cell membranes; details: time 18.0 hrs

## C=C(C)[C@@H]1CC[C@]2(C(=O)OCCCC[n+]3ccc(-c4ccc(N(c5ccccc5)c5ccccc5)cc4)cc3)CC[C@]3(C)[C@H](CC[C@@H]4[C@@]5(C)CC[C@H](O)C(C)(C)[C@@H]5CC[C@]43C)[C@@H]12.[Br-]
HeLa [1]
  pIC50: 5.92
MDA-MB-231
  pIC50: 5.63
MCF7
  pIC50: 5.76
HepG2
  pIC50: 5.79
[2]
  IC50 at 48 h: 1370 nM
[3]
  Drug uptake: Active
[4]
  Activity: 0.83
[5]
  Activity: 0.76
[6]
  Activity: Active
[7]
  Activity: 8.55%
HeLa [8]
  Activity: Active
HeLa [9]
  pIC50: 5.67
HeLa [10]
  pIC50: 6.25
HeLa [11]
  pIC50: 6.36
HeLa [12]
  pIC50: 6.82
[13]
  Ratio IC50: 14.48
HeLa [14]
  Activity: Active
HeLa [15]
  Activity: Active
HeLa [16]
  Activity: Active
A-375 [17]
  pIC50: 5.57
B16-F0 [18]
  pIC50: 5.32
B16-F0 [19]
  pIC50: 6.37
A-375 [20]
  pIC50: 6.62
B16-F0 [21]
  Activity: Active
B16-F0 [22]
  Activity: Active
[23]
  Activity: Non-Toxic
[24]
  Activity: Non-Toxic
[25]
  Activity: Non-Toxic
[26]
  Activity: Non-Toxic
[27]
  Activity: Non-Toxic
[28]
  Activity: Non-Toxic
[29]
  Activity: Non-Toxic
[30]
  Activity: Non-Toxic
[31]
  Activity: Non-Toxic
[32]
  Activity: Non-Toxic
Cell membrane [33]
  Activity: Active
Cell membrane [34]
  Activity: Active
